Test results: article PMC4885110, “Structure-Based Design of an in Vivo Active Selective BRD9 Inhibitor” (Journal of Medicinal Chemistry, 2016)

Key:
[1] = Hepatocytes predicted clearance, mouse; format: in vitro ADME
Experimental: (§1) this tumor mouse model body weight changes can occur due to increased tumor load or due to […]
(§2) Determination of physicochemical and in vitro DMPK parameters […]
(§3) diluted with aqueous McIlvaine buffer at pH 6.8, or with acetonitrile/water (1:1) as a reference. Samples were shaken for 24 h at room temperature in 96-well plates (Whatman Uniplate® 96 wells, 750 µL, polypropylene, round bottom). The plate was then centrifuged at 3,000 rpm for 2 min. 250 µL of each sample were transferred to a Millipore MultiScreenHTS filter plate with a polycarbonate membrane, pore size 0.45 μm. Filtrates were collected by centrifugation at 3,000 rpm for 2 min. The dissolved concentrations were determined by UPLC/UV on a Waters ACQUITY UPLC® SQD system equipped with a Waters ACQUITY UPLC® BEH 2.1x50 mm C18 column, particle size 1.7 µm, using a short gradient with water/0.1% formic acid as solvent A and acetonitrile/0.1 % formic acid as solvent B (5 to 95 % B with 1.7 min total cycle time). Compound signals were measured with a photodiode array UV detector operated at 254 nm. Solubility was determined with a one point calibration by comparing peak areas relative to the reference standard using Waters Empower software. […]
(§4) In vitro plasma protein binding (PPB) was determined by a semi-automated equilibrium dialysis assay on a Tecan robotic system at a test compound concentration of 3 µM. […]

U2OS cells = assay: Toxicity in U2OS cells; format: cell-based; details: after 24 h
Experimental: Figure 4 FRAP assay using U2OS cells transfected with GFP–BRD9. (a) Recovery half times of wild-type (wt) cells treated with DMSO in the absence or presence of 2.5 μM SAHA or treated with 1 at 1 μM and SAHA as indicated. In addition, cells expressing GFP–BRD9 with a BD-inactivating mutation (N100F) were analyzed. Significant differences relative to cells treated with SAHA (p < 0.0001) are shown by ****. (b) Time dependence of fluorescence recovery in the bleached area of cells expressing wt or mutant GFP–BRD9 with the corresponding treatments shown in (a). (c) Recovery half times of cells expressing wt GFP–BRD9 treated with various concentrations of DMSO and 2 in the presence or absence of SAHA as indicated. Cells expressing the GFP–BRD9 mutant (N100F) were treated as indicated. Significant differences relative to cells treated with SAHA (p < 0.0001) are shown by ****. (d) Time dependence of fluorescence recovery in the bleached area of cells expressing wt or mutant GFP–BRD9 with the corresponding treatments shown in (c). Curves represent averaged data of at least 20 replicates. […] The N100F construct is a negative control BRD9 mutant in which Asn100 is replaced by Phe100 and therefore acetylated histone cannot bind because of the lack of interaction to the anchor Asn and because of steric hindrance. […]

[2] = format: in vivo; details: Mouse 5 mg/kg i.v. bolus
Source text: Mice were housed under pathogen-free conditions (AAALAC accredited facility) and treated according to the institutional, governmental and European Union guidelines (GV-SOLAS, Felasa, Austrian Animal Protection Laws). All animal studies were reviewed and approved by the internal ethics committee of Boehringer Ingelheim and the local governmental committee (Amt der Wiener Landesregierung, Magistratsabteilung 58, Vienna, Austria).
Pharmacokinetic and efficacy studies in mice […]
Following injection of the cells animals were randomized based on body weight (n=10/group). […] All doses were calculated relative to the mouse body weight on the treatment day. […]
body weight loss. Tumour load was measured 2-3 times weekly based on bioluminescence imaging as described previously. […]
1x10^6 cells/mL were incubated and continuously shaken in a Thermo Scientific Cytomat™ for 4 h at 85-95% relative humidity and 5-10% CO2 at 37 °C. Aliquots were taken from the medium at 0, 0.5, 1, 1.5, 2.5 und 4 h and concentrations of the test compounds quantified by HPLC/MS/MS on a BIOCIUS Life Sciences RapidFire® system coupled to a Thermo Scientific™ TSQ Vantage™ triple-quadrupole mass spectrometer. Predicted clearances were calculated using the well-stirred model.
as §4

[3] = Hepatocytes predicted clearance, human; format: in vitro ADME
Experimental: as §1, §2, §3, §4

[4] = Hepatocytes predicted clearance, rat; format: in vitro ADME
Experimental: as §1, §2, §3, §4

Aqueous solubility = format: physicochemical; details: aqueous McIlvaine buffer, pH 6.8
Experimental: as §1, §2, §3

[5] = 1 week tolerability study in non-tumor-bearing CIEA-NOG mice; format: in vivo; details: 180 mg/kg, continuous daily dosing, female CIEA-NOG mice
[6] = Disseminated EOL-1 AML mouse model; format: in vivo; details: female, CIEA-NOG, po, 180 mg/kg p.o., plasma, last day of treatment
[7] = set-up: method as in earlier work; details: cited from earlier work

| SMILES | Hepatocytes pred. CL mouse [1] [% QH] | toxicity in U2OS cells (U2OS cells) | plasma CL [2] [% QH] | Hepatocytes pred. CL human [3] [% QH] | Hepatocytes pred. CL rat [4] [% QH] | solubility at 24 h (Aqueous solubility) [µg/mL] | tolerability [5] | AUC(0-t) [6] [µM·h] | membrane permeability [7] [nM/s] |
| --- | --- | --- | --- | --- | --- | --- | --- | --- | --- |
| COc1cc(-c2cn(C)c(=O)c3cnccc23)cc(OC)c1CN(C)C [Compound 1, n1cc2c(cc1)C(=CN(C2=O)C)c1cc(c(c(c1)OC)CN(C)C)OC] | 58 | no toxicity | 57 | 17 | < 7 | > 91 | – | – | – |
| COc1cc(-c2cn(C)c(=O)c3cnccc23)c(OC)cc1CN(C)C [Compound 2, 4-{4-[(Dimethylamino)methyl]-2,5-dimethoxyphenyl}-2-methyl-1,2-dihydro-2,7-naphthyridin-1-one] | 56 | no toxicity | 65 | 17 | 17 | > 90 | well-tolerated | 268 | – |
| CCn1cc(-c2cccc(C(F)(F)F)c2)c2sc(C(=N)NC3CCS(=O)(=O)CC3)cc2c1=O [I-BRD9] | – | – | – | – | – | – | – | – | 210 |
